In US8853194B2, “Sterol derivatives and their synthesis and use” (priority 2009, dated 2014):

How the values were obtained:
[1] = system: mouse hepatoma cells H22; conditions: 0.02 g/(Kg.d) i.p.
Protocol: (§1) Ascites mice S180 and H22 that had been vaccinated 7 days were sacrificed by cervical, from which ascites were obtained under sterile conditions respectively; the obtained ascites were washed twice with culture medium RPMI1640, and prepared to a 2×10^7/ml suspension in sterile physiological saline. The suspension of cell S180 was inoculated subcutaneously in the right axillas of 40 mice (0.1 ml/mouse) to produce solid tumor models; while the suspension of cell H22 was inoculated in abdominal cavities of 40 mice (0.2 ml/mouse) by conditional means under sterile conditions to produce ascites tumor models.
(§2) 90 mice were randomly divided into 9 groups of 3 types, wherein the first type group was a normal control group, the second type groups were S180 solid tumor groups including a positive (cyclophosphamide) control group, a negative control group, a low dose group and a high dose group, and the third type groups were H22 ascites groups including a positive (cyclophosphamide) control group, a negative control group, a low dose group and a high dose group. There were 10 mice in each group. The experiment was repeated for three times.
(§3) […], the negative control group was injected same volume of corn oil, and the positive control group was injected cyclophosphamide injection solution with the dose of 0.02 g/(Kg.d). The used injection volume was 0.1 ml/mouse and the injection was given as intraperitoneal injection every other day for 15 days. During the 15 days, general activities, fur, feces, etc. of the mice were daily observed. 24 hours after the last administration, mice that had been inoculated subcutaneously with S180 were sacrificed by cervical, from which tumors, thymus and spleen were taken out. After the last administration, mice that had been inoculated in abdominal cavities with H22 were conventionally bred continually, weighted and observed the survival time every day until all the mice in the negative group were dead.
24 hours after the inoculation of ascites, the weight and the amount of abdominal circumference of the mice in the groups of ascites models were measured. The drug administration and breeding were continued according to different groups, the weight and the abdominal circumference were measured daily until one day before death. The weight increase (g) and abdominal-circumference increase (cm) were calculated. The experiment started on the day of tumor inoculation and ended on the day when all the mice in the negative control group were dead; the time of deaths were recorded, and the survival extending rate was calculated. Survival Extending Rate(%)=[(mean survival days of treatment group−mean survival days of negative control group)/mean survival days of control group]×100%
(§4) After finishing the administration in all mice in the solid tumor group, the mice were sacrificed and their spleens and livers were weighed by electronic balance. The spleen index was equivalent to the spleen weight (mg) of mice in each group divided by the weight of the mice, while the liver index was equivalent to the liver weight […] divided by the weight (g) of the mice.

[2] = system: mouse sarcoma cells S180; conditions: 0.02 g/(Kg.d) i.p.
Protocol: as §1, §2, §3, §4
On the next day after drug withdrawal, the mice in the solid-tumor […] group were weighed and sacrificed by cervical, wherein the serum was collected by eye bleeding for later use in subsequent experiments. Tumor tissues were dissected and weighed by electronic balance. The tumor inhibition rate was calculated as follows. Tumor Inhibition Rate(%)=[(mean tumor weight of negative control group−mean tumor weight of treatment group)/mean tumor weight of control group]×100%

[3] = system: VEGF; conditions: positive CTX control group, OD at 450 nm
Protocol: Before taking tumors out, blood was collected by eye bleeding from mice in the four groups, i.e. the negative control group, the positive CTX control group, the high dose (32 mg/kg) group and the low dose (16 mg/kg) group.
1.1 Preparing reagents, samples and standards;
1.2 Adding the prepared samples and standards, and reacting for 90 minutes at 37° C.;
1.3 Washing the plate twice, adding biotinylated antibody working solution, and reacting for 60 minutes at 37° C.;
1.4 Washing the plate for three times, adding ABC working solution, and reacting for 30 minutes at 37° C.;
1.5 Washing the plate for five times, adding TMB color liquid, and reacting in dark for 15 minutes at 37° C.;
1.6 Adding TMB stop solution, and measuring OD value at 450 nm.

[4] = system: CAM vessels; assay: CAM assay, effect on tumor angiogenesis; assay type: in vivo, German Roman embryonated eggs; conditions: 4 ug/embryo, 72 hours incubation
Protocol: A sterile gelatin sponge, previously made into disks with diameter of 5 mm by a hole puncher, was used as sample carrier. […] There were 3 dose groups, wherein 5 μl (low dose group, with a dose volume of 2 μg/embryo), 10 μl (middle dose group, with a dose volume of 4 μg/embryo), and 20 μl (high dose group, with a dose volume of 8 μg/embryo) of the solution were added respectively into gelatin sponge slices by a quantitative liquid transfer. The sponge slices were dried in the sterile environment.
A sterilized egg was placed into a 37° C. incubator with its air chamber upward. In the 7th day, the embryo was positioned on a super-clean bench and sterilized by ethanol, and then it was drilled by a dental drill to form a little hole in the top of the embryo. Egg shell and shell membrane around the hole were carefully removed to form an opening of about 1.2 cm×1.2 cm; after determining a sample-adding site, the air chamber membrane was carefully pricked at the separation place between the chamber and the yolk by a syringe needle; through the prick hole 1-2 drops of sterilized water was injected, which made the chamber membrane and the CAM membrane be separated; after gently removing the upper layer of the chamber membrane with forceps, the CAM membrane in the lower layer was exposed.
A drug-containing carrier was placed, at the junction area of the CAM membrane and the yolk sac membrane, on a site where vessels were less, and then sealed with sterilized transparent adhesive tape to continue to incubate for 72 hours.
After the incubation, the transparent adhesive tape stopped on the top of the air chamber was gently removed by forceps; a mixture of methanol/acetone (1:1, 1-2 ml) was gently added; the room temperature was remained constant for 10 minutes. Then, the CAM membrane was carefully peeled off and placed on a glass slide for observing and taking photos. The effect of the compound on angiogenesis was assessed by counting the numbers of large, middle, small blood vessels radiated by the carrier.

SMILES | Abdominal circumference increase (cm) ([1]; H22 ascites mice) | Survival extending rate (%) ([1]; H22 ascites mice) | Survival time (day) ([1]; H22 ascites mice) | Weight increase (g) ([1]; H22 ascites mice) | Weight increase ([1]; H22 ascites mice, listed as cyclophosphamide) | Liver index (100 g/g) ([1]; ascites mice) | Spleen index (mg/g) ([1]; ascites mice) | Liver index (100 g/g) ([2]; S180 mice) | Spleen index (mg/g) ([2]; S180 mice) | Tumor inhibition rate (%) ([2]; S180 sarcoma mice) | Tumor weight (g) ([2]; S180 sarcoma mice) | Weight increase (g) ([2]; S180 sarcoma mice) | OD value of serum VEGF [3] | Large vessels (number of the vessels) [4] | Middle vessels (number of the vessels) [4] | Small vessels (number of the vessels) [4]
O=P1(N(CCCl)CCCl)NCCCO1 (stereo not shown) [Cyclophosphamide, reference compound] | 2.30 ± 0.66^(2)(4) cm | 57.73% | 15.3 ± 1.06^(4) day | 3.42 ± 1.67^(2)(4) g | 3.42 g | 3.26 ± 0.27^(1)(4) 100 g/g | 2.45 ± 0.34^(1)(4) mg/g | 3.09 ± 0.31^(1)(4) 100 g/g | 2.76 ± 0.64^(1)(4) mg/g | 62.63% | 0.518 ± 0.231^(4) g | 4.76 ± 1.01^(1)(3) g | 0.2205 ± 0.0238 | – | – | –
Cc1ccc(C(=O)Nc2ccc(S(=O)(=O)O)c3cc(S(=O)(=O)O)cc(S(=O)(=O)O)c23)cc1NC(=O)c1cccc(NC(=O)Nc2cccc(C(=O)Nc3cc(C(=O)Nc4ccc(S(=O)(=O)O)c5cc(S(=O)(=O)O)cc(S(=O)(=O)O)c45)ccc3C)c2)c1 [Suramin, reference compound] | – | – | – | – | – | – | – | – | – | – | – | – | – | 3.6 ± 2.0 | 12.4 ± 3.8 | 6.1 ± 3.0
